tested on: metabolism of retinoic acid in human breast cancer cells; assay: Inhibition of retinoic acid (RA) metabolism (Example C.1); assay type: cell-based; conditions: MCF7; MCF-7 human breast cancer cells, 3H-RA as substrate; concentration needed to reduce the amount of metabolites to 50% of the control
Text: (§1) The property to delay the metabolism of retinoic acid can be evidenced in various in vitro and in vivo experiments. A particular in vitro procedure is described in example C.1 and tests the inhibitory activity of the compounds of formula (I) on the metabolism of retinoic acid in human breast cancer cells. The compounds of the present invention were also effective in suppressing induced vaginal keratinization effects in ovariectomized rats as is described in example C.2.
Inhibition of Retinoic Acid (RA) Metabolism
MCF-7 human breast cancer cells were grown as stock cultures according to art-known protocols. One day before the experiment, RA is added to the stock cultures to stimulate RA-metabolism. At the start of the experiment, cell suspensions were incubated in a tissue culture medium containing ^3H-RA as the substrate. Different concentrations of the test compound (dissolved in 1% DMSO) were added to the incubation mixtures, and at the end of the incubation, the unmetabolized RA is separated from its polar metabolites. The fraction containing the polar ^3H-labelled metabolites was collected and counted in a scintillation counter. For each experiment, a control and a blank incubation were run in parallel. Table 22 list the IC50 value (defined as the concentration in M needed to reduce the amount of metabolites to 50% of the control).

Question: For `CC(C)C(c1ccc(NC(N)=S)cc1)n1ccnc1` (racemic) [Compound 699, (±)-4-[1-(1H-imidazol-1-yl)-2-methylpropyl]phenylthiourea], which IC50 is on record?
Answer: 9.69 nM

same assay, conditions: MCF-7 human breast cancer cells, 3H-RA as substrate; concentration needed to reduce the amount of metabolites to 50% of the control

Question: For `CC(C(c1ccc(NC(=O)Cc2ccc(O)c(Cl)c2)cc1)n1cncn1)N(C)C` (mixture of isomers) [Compound 299], which IC50 is on record?
Answer: 0.772 nM

Question: With `COc1ccc(CC(=O)Nc2ccc(C(C(C)N(C)CCc3ccccc3)n3ccnc3)cc2)cc1OC` (mixture of isomers) [Compound 415] as the molecule, how does the IC50 read?
Answer: 2.64 nM

Question: For `Cc1cncn1C(c1ccc(Cl)cc1)c1ccc(NC(=O)C=C(c2ccccc2)c2cccc(Cl)c2)cc1` (mixture of isomers) [Compound 693], which IC50 is on record?
Answer: > 100 nM

Question: Which IC50 does the source give for `CCC(CC)C(c1ccc(NC(=O)COc2ccccc2OC)cc1)n1cncn1` (racemic) [Compound 12] here?
Answer: 0.0365 nM

Question: For `CCC(CC)C(c1ccc(NC(=O)C(O)c2ccc(Cl)cc2)cc1)n1cncn1` (racemic) [Compound 17, (±)-A1-4-chloro-N-[4-[2-ethyl-1-(1H-1,2,4-triazol-1-yl)butyl]phenyl]-α-hydroxybenzeneacetamide], which IC50 is on record?
Answer: 0.999 nM

Question: With `CCC(CC)C(c1ccc(NC(=O)Cc2ccc(OC)nc2)cc1)n1ccnc1` (racemic) [Compound 51] as the molecule, how does the IC50 read?
Answer: 0.895 nM

Question: With `CCC(CC)C(c1ccc(NC(=O)Cc2ccc(OC)c(O)c2)cc1)n1ccnc1` (racemic) [Compound 108] as the molecule, how does the IC50 read?
Answer: 0.0234 nM

Question: How did the IC50 turn out when `CCC(CC)C(c1ccc(NC(=O)Cc2cc(OC)cc(OC)c2)cc1)n1ccnc1` (racemic) [Compound 119] was run?
Answer: 0.94 nM

Question: `CCC(CC)C(c1ccc(NC(=O)Cc2cc(OC)ccc2OCc2ccccc2)cc1)n1ccnc1` (racemic) [Compound 120] was tested. Which IC50 did it give?
Answer: 3.88 nM

Question: Which IC50 does the source give for `CCC(CC)C(c1ccc(NC(=O)Cc2cc(C)ccc2O)cc1)n1ccnc1` (racemic) [Compound 124] here?
Answer: 0.0397 nM

Question: Which IC50 does the source give for `Cc1cnc(C(=O)Nc2ccc(C(C(C)C)n3ccnc3)cc2)cn1` (racemic) [Compound 225] here?
Answer: 82.8 nM

Question: How did the IC50 turn out when `Cc1ccoc1C(=O)Nc1ccc(C(C(C)C)n2ccnc2)cc1` (racemic) [Compound 226] was run?
Answer: 16.9 nM

Question: With `C/C(=C\c1ccccc1)C(=O)Nc1ccc(C(c2ccc3c(c2)C(C)(C)CCC3(C)C)n2ccnc2)cc1` (racemic) [Compound 491] as the molecule, how does the IC50 read?
Answer: 1.84 nM

Question: With `O=C(C=C(c1ccccc1)c1cccnc1)Nc1ccc(C(c2ccc(Cl)cc2)n2ccnc2)cc1` (racemic) [Compound 516] as the molecule, how does the IC50 read?
Answer: > 1000 nM

Question: How did the IC50 turn out when `O=C(C=C(c1ccccc1)c1cccnc1)Nc1ccc(C(c2ccc(F)cc2)n2ccnc2)cc1` (racemic) [Compound 517] was run?
Answer: 36.9 nM

Question: `O=C(/C=C/c1ccccc1)Nc1ccc(C(c2cccc(C(F)(F)F)c2)n2cncn2)cc1` (racemic) [Compound 617] was tested. Which IC50 did it give?
Answer: 151 nM

Question: How did the IC50 turn out when `CC(C)C(c1ccncc1)c1ccc(NC(=O)Cc2ccc(Cl)cc2)cc1` (racemic) [Compound 685] was run?
Answer: 90.8 nM

Question: `CC(C)C(c1ccc(NC(=O)Cc2ccc(Cl)cc2)cc1)c1ccccn1` (racemic) [Compound 687] was tested. Which IC50 did it give?
Answer: > 100 nM

Question: Which IC50 does the source give for `O=C(Nc1ccc(C(c2ccc(Cl)cc2)n2ccnc2)cc1)Nc1cccc(F)c1` (racemic) [Compound 731] here?
Answer: > 100 nM

Question: For `CCC(c1ccc(NC(=O)Cc2ccc(Cl)cc2)cc1)(C(C)C)n1ccnc1` (racemic) [Compound 755], which IC50 is on record?
Answer: 4.35 nM

Question: For `CC(C)C(c1ccc(NC(=O)Cc2ccc(N)cc2)cc1)n1ccnc1` (single isomer, unassigned) [Compound 147], which IC50 is on record?
Answer: 33 nM

Question: Which IC50 does the source give for `CC(C)C(c1ccc(NC(=O)Cc2ccc(N=[N+]=[N-])c(I)c2)cc1)n1ccnc1` (single isomer, unassigned) [Compound 260] here?
Answer: 2.43 nM

Question: How did the IC50 turn out when `CC(C(c1ccc(NC(=O)Cc2ccc(O)c(Cl)c2)cc1)n1ccnc1)N(C)C` (single isomer, unassigned) [Compound 303] was run?
Answer: 3.26 nM

Question: With `COc1ccc(CC(=O)Nc2ccc(C(C(C)N(C)C)n3ccnc3)cc2)cc1Cl` (single isomer, unassigned) [Compound 305] as the molecule, how does the IC50 read?
Answer: 0.0829 nM

Question: `COc1ccc(CCCC(=O)Nc2ccc(C(C(C)N(C)C)n3ccnc3)cc2)cc1OC` (single isomer, unassigned) [Compound 336] was tested. Which IC50 did it give?
Answer: 1.91 nM

Question: `CCC(C(c1ccc(NC(=O)Cc2ccc(OC)c(OC)c2)cc1)n1ccnc1)N(C)C` (single isomer, unassigned) [Compound 388] was tested. Which IC50 did it give?
Answer: 0.829 nM

tested on: Ovariectomized rats; assay: Vaginal keratinization test on ovariectomized rats (Example C.2); assay type: in vivo; conditions: estradiol undecylate induced keratinization, per os once daily on days 1-3, active dose = 50% of rats show complete suppression
Text: as §1
“Vaginal Keratinization Test on Ovariectomized Rats”
Ovariectomized rats were injected subcutaneously with a sesame oil solution containing 100 μg of estradiol undecylate in a volume of 0.1 ml per 100 g body weight and control animals were injected with sesame oil. On day one, two and three, test animals were treated once daily with a per os dose of the test compound and control animals with the drug vehicle (PEG 200). One day after the last treatment, the animals were sacrificed and their vaginas were processed for histological evaluation according to the method described in J. Pharmacol. Exp. Ther. 261(2), 773–779 (1992). A dose at which 50% of the tested rats show complete suppression of the estradiol undecylate induced keratinization effects is defined as an active dose. Table 23 lists the lowest active dose (LAD in mg/kg) of the compounds of formula (I) which were tested.

Question: For `CCCCCC(C)C(c1ccc(NC(=O)/C(C)=C/c2ccccc2)cc1)n1ccnc1` (single isomer, unassigned) [Compound 487], which “LAD (lowest active dose)” value is on record?
Answer: >5.00 mg/kg

Question: Which “LAD (lowest active dose)” value does the source give for `CCCCCC(CC)C(c1ccc(NC(=O)C(C)=Cc2ccccc2)cc1)n1ccnc1` (single isomer, unassigned) [Compound 494] here?
Answer: >2.50 mg/kg

Question: With `CC(=O)Nc1ccc(C(C(C)N(C)C)n2ccnc2)cc1.O` (single isomer, unassigned) [Compound 551] as the molecule, how does the “LAD (lowest active dose)” value read?
Answer: >2.50 mg/kg

Question: How did the “LAD (lowest active dose)” value turn out when `CC(=O)Nc1ccc(C(C(C)N(C)C)n2ccnc2)cc1` (single isomer, unassigned) [Compound 552] was run?
Answer: >2.50 mg/kg

Question: Which “LAD (lowest active dose)” value does the source give for `CCN(CC)C(C)C(c1ccc(NC(C)=O)cc1)n1ccnc1` (single isomer, unassigned) [Compound 554] here?
Answer: 2.50 mg/kg

Question: For `CCN(CC)C(C)C(c1ccc(NC(C)=O)cc1)n1ccnc1` (single isomer, unassigned) [Compound 555], which “LAD (lowest active dose)” value is on record?
Answer: >2.50 mg/kg

Question: `CCC(C(c1ccc(NC(C)=O)cc1)n1ccnc1)N(C)C` (single isomer, unassigned) [Compound 557] was tested. Which “LAD (lowest active dose)” value did it give?
Answer: >5.00 mg/kg

Question: With `CC(=O)Nc1ccc(C(C(C)N(C)C)n2cncn2)cc1` (single isomer, unassigned) [Compound 627] as the molecule, how does the “LAD (lowest active dose)” value read?
Answer: >2.50 mg/kg

Question: With `CC(C(c1ccc(NC(=O)Cc2ccc(Cl)cc2)cc1)n1cncn1)N(C)C` (single isomer, unassigned) [Compound 628] as the molecule, how does the “LAD (lowest active dose)” value read?
Answer: >2.50 mg/kg

Question: How did the “LAD (lowest active dose)” value turn out when `COc1ccc(CCC(=O)Nc2ccc(C(C(C)N(C)C)n3cncn3)cc2)cc1OC` (single isomer, unassigned) [Compound 629] was run?
Answer: >2.50 mg/kg

Question: How did the “LAD (lowest active dose)” value turn out when `COc1cc(CC(=O)Nc2ccc(C(C(C)N(C)C)n3cncn3)cc2)cc(OC)c1OC` (single isomer, unassigned) [Compound 630] was run?
Answer: >2.50 mg/kg

Question: Which “LAD (lowest active dose)” value does the source give for `C/C(=C\c1ccccc1)C(=O)Nc1ccc(C(C(C)N(C)C)n2cncn2)cc1` (single isomer, unassigned) [Compound 632] here?
Answer: >2.50 mg/kg

Question: How did the “LAD (lowest active dose)” value turn out when `CCN(CC)C(C)C(c1ccc(NC(C)=O)cc1)n1cncn1` (single isomer, unassigned) [Compound 647] was run?
Answer: >5.00 mg/kg

Question: For `CC(C(c1ccc(NC(=S)Nc2nc3ccccc3s2)cc1)n1ccnc1)N(C)C` (single isomer, unassigned) [Compound 704], which “LAD (lowest active dose)” value is on record?
Answer: >5.00 mg/kg

Question: `COc1ccc(NC(=O)Nc2ccc(C(C(C)N(C)C)n3cncn3)cc2)cc1OC` (single isomer, unassigned) [Compound 717] was tested. Which “LAD (lowest active dose)” value did it give?
Answer: >2.50 mg/kg

Question: With `COc1ccc(NC(=O)Nc2ccc(C(C(C)N(C)C)n3cncn3)cc2)cc1OC` (single isomer, unassigned) [Compound 720] as the molecule, how does the “LAD (lowest active dose)” value read?
Answer: >2.50 mg/kg

Question: For `CC(C(c1ccc(NC(=O)Cc2ccc(Cl)cc2)cc1)n1cncn1)N(C)C` (single isomer, unassigned) [Compound 784], which “LAD (lowest active dose)” value is on record?
Answer: >5.00 mg/kg

Question: `CC(C(c1ccc(NC(=O)Cc2ccc(Cl)cc2)cc1)n1cncn1)N(C)C` (single isomer, unassigned) [Compound 785] was tested. Which “LAD (lowest active dose)” value did it give?
Answer: 5.00 mg/kg

Question: How did the “LAD (lowest active dose)” value turn out when `CCC(CC)C(c1ccc(NC(=O)c2ccccc2)cc1)n1cncn1` (stereo not shown) [Compound 3] was run?
Answer: >2.50 mg/kg

Question: With `CCC(CC)C(c1ccc(NC(=O)CN(C)C)cc1)n1ccnc1` (stereo not shown) [Compound 55] as the molecule, how does the “LAD (lowest active dose)” value read?
Answer: >2.50 mg/kg

Question: For `CCOc1ccc(CCC(=O)Nc2ccc(C(C(C)N(C)C)n3ccnc3)cc2)cc1` (stereo not shown) [Compound 348], which “LAD (lowest active dose)” value is on record?
Answer: >2.50 mg/kg

Question: Which “LAD (lowest active dose)” value does the source give for `COc1ccc(CC(=O)Nc2ccc(C(CN(C)C)n3ccnc3)cc2)cc1OC` (stereo not shown) [Compound 380] here?
Answer: >2.50 mg/kg

Question: Which “LAD (lowest active dose)” value does the source give for `CCOC(=O)CC(c1ccc(NC(=O)Cc2ccc(OC)c(OC)c2)cc1)n1ccnc1` (stereo not shown) [Compound 395] here?
Answer: >5.00 mg/kg

Question: How did the “LAD (lowest active dose)” value turn out when `COc1ccc(CC(=O)Nc2ccc(C(CCO)n3ccnc3)cc2)cc1OC` (stereo not shown) [Compound 403] was run?
Answer: >5.00 mg/kg

Question: Which “LAD (lowest active dose)” value does the source give for `CCOC(=O)CC(c1ccc(NC(C)=O)cc1)n1ccnc1` (stereo not shown) [Compound 560] here?
Answer: >5.00 mg/kg

Question: Which “LAD (lowest active dose)” value does the source give for `CCOC(=O)C(C)C(c1ccc(NC(=O)Cc2ccc(Cl)cc2)cc1)n1cncn1` (stereo not shown) [Compound 624] here?
Answer: >2.50 mg/kg

Question: With `CCC(C)C(c1ccc(NC(=O)Cc2ccc(Cl)cc2)cc1)n1cncn1` (stereo not shown) [Compound 626] as the molecule, how does the “LAD (lowest active dose)” value read?
Answer: 2.50 mg/kg

Question: Which “LAD (lowest active dose)” value does the source give for `CCC(c1ccc(NC(C)=O)cc1)(C(C)C)n1ccnc1` (stereo not shown) [Compound 754] here?
Answer: 10.00 mg/kg

— patent US7179825B2, “Retinoic acid mimetic anilides” (Janssen Pharmaceutica N.V., priority 1997, dated 2007)
